Legend:
Format in all cases: cell-based
A431 (EGFR_WT) = target: T1, A431 (EGFR_WT) (Homo sapiens, UniProt P00533); test: EGFR degradation assay (western blot), A431 cells; conditions: compounds 24 h, western blot, read-out: A431 DC50
T1 construct: endogenous in cells; host or cells: A431, NCI-H2073, NCI-H292
Protocol: (§1) A431 (EGFR_WT), NCl-H2073 (EGFR_WT), NCl-H292 (EGFR_WT), BaF3_YVAM (Her2_A775insYVAM), BaF3_SVD (EGFR_D770insSVD), BaF3_ASV (EGFR_A776inASV), or BaF3_DTC (EGFR_Exon19del/T790M/C797S) cells were seeded in a 24-well plate at a density of 4×10^5 cells per well for EGFR WT cells and 8× cells per well for EGFR or Her2 mutant cells, and the plates were incubated overnight. The cells were treated with the desired compounds for 24 h. The culture medium was removed, and 100 μL of RIPA buffer (Beyotime, P0013B) containing 1% Protease Inhibitor Cocktail (Bimake, B14001), 1% Phosphatase Inhibitor Cocktail 2 (Sigma, P5726), and 1% Phosphatase Inhibitor Cocktail 3 (Sigma, P0044) were added to lyse the cells. Then, the cell lysates were transferred to 1.5 mL microcentrifuge tubes and centrifuged at 12,000 rpm and 4° C. for 30 min. The supernatants were transferred into new tubes, and the protein concentration was determined using the BCA protein quantification method. All samples were diluted to the same concentration using RIPA buffer, loading buffer was added, samples were denatured, and 15 μg of protein per lane was loaded onto a SurePAGE 4-20% Bis-Tris gel. Samples were separated via electrophoresis in MOPS running buffer at 180 V for 100 min. Then, proteins were transferred onto PVDF membranes using the MiniBlot™ Electrophoretic Transfer Cell Device (Beyotime, E6050). The membrane was blocked using block buffer (LI-COR 927-60001) to prevent non-specific binding. The membrane was incubated with primary antibodies (1:500 dilution, EGFR-CST4405, 1:2000 dilution, Tubulin-ABclonal #AC021) at 4° C. overnight. The membrane was washed three times with 1× TBST buffer for 15 min each. The membrane was incubated with secondary antibodies IRDye 680RD Goat anti-Rabbit IgG Secondary Antibody (1:2000 dilution, LI-COR 926-68071) and IRDye 800CW Goat anti-Mouse IgG Secondary Antibody (1:2000 dilution, LI-COR 926-32210). Finally, the membrane was washed again with 1× TBST buffer 3 times. Fluorescence was detected using the Odyssey CLx Imaging System, and the data were analyzed with Empiria Studio Software and GraphPad Prism 9. Table 4 and Table 5 list the degradation results, where the degradation potency is represented by DC50, the concentration of compounds to cause the degradation of 50% of the corresponding proteins. FIGS. 45-49 show western blots illustrating the EGFR degradative activity of exemplary Compound of the present disclosure and a comparator Compound A in different cell lines 24 h after administration. The Compound referred herein as Compound A is disclosed in WO 2022/171123 A1 (see, compound 133, page 46; published Aug. 18, 2022). WO 2022/171123 A1 discloses phosphine oxide derived molecules with EGFR degradation activity.

[1] = system: BaF3_DTC (EGFR_Exon19del/T790M/C797S); test: EGFR degradation assay (western blot), BaF3_DTC cells; conditions: BaF3_DTC cells (EGFR_Exon19del/T790M/C797S), compounds 24 h, western blot; read-out: BaF3_DTC DC50
Protocol: as §1

[2] = target: T2, BaF3_ASV (EGFR_A776inASV) (Homo sapiens, UniProt P00533, DUP767-769); test: EGFR degradation assay (western blot), BaF3_ASV cells; conditions: BaF3_ASV cells, compounds 24 h, western blot; read-out: BaF3_ASV DC50
T2 construct: expressed in transfected cells; host or cells: Ba/F3 (engineered)
Protocol: as §1

A431 = test: Cell growth inhibition assay (CellTiter-Glo), A431; conditions: Homo sapiens, A-431, 72 h, Table 6; A431 cells, three days, CellTiter-Glo; read-out: A431 GI50
Protocol: (§2) Cells were seeded in a 96-well plate (Corning 3610) with 90 μL of culture medium per well, and plates were incubated at 37° C. overnight. A 1,000× DMSO stock solution of the desired compound was prepared the following day. A compound dilution plate was prepared by diluting the stock solution 1:100 in the corresponding cell culture medium, 10 μL of the diluted compound solution was added to each 96-well plate well containing the seeded cells. […] The content of the wells was mixed by shaking continuously for 10 min, and luminescence was measured using Envision (PerkinElmer). The data were analyzed with GraphPad Prism 9 (see FIG. 50).
(§3) Table 6, Table 7, and Table 8 list the cell growth inhibition results, where Gls0 represents the compound concentration to cause 50% cell growth inhibition in comparison with DMSO.

BaF3_DTC = test: Cell growth inhibition assay (CellTiter-Glo), BaF3_DTC; conditions: 72 h; Table 6; BaF3_DTC cells, three days, CellTiter-Glo; read-out: BaF3_DTC GI50
Protocol: as §2, §3

BaF3_ASV = test: Cell growth inhibition assay (CellTiter-Glo), BaF3_ASV; conditions: 72 h; Table 6; BaF3_ASV cells, three days, CellTiter-Glo; read-out: BaF3_ASV GI50
Protocol: as §2, §3

T2 sequence (P00533 with tags, fused parts or gaps DUP767-769): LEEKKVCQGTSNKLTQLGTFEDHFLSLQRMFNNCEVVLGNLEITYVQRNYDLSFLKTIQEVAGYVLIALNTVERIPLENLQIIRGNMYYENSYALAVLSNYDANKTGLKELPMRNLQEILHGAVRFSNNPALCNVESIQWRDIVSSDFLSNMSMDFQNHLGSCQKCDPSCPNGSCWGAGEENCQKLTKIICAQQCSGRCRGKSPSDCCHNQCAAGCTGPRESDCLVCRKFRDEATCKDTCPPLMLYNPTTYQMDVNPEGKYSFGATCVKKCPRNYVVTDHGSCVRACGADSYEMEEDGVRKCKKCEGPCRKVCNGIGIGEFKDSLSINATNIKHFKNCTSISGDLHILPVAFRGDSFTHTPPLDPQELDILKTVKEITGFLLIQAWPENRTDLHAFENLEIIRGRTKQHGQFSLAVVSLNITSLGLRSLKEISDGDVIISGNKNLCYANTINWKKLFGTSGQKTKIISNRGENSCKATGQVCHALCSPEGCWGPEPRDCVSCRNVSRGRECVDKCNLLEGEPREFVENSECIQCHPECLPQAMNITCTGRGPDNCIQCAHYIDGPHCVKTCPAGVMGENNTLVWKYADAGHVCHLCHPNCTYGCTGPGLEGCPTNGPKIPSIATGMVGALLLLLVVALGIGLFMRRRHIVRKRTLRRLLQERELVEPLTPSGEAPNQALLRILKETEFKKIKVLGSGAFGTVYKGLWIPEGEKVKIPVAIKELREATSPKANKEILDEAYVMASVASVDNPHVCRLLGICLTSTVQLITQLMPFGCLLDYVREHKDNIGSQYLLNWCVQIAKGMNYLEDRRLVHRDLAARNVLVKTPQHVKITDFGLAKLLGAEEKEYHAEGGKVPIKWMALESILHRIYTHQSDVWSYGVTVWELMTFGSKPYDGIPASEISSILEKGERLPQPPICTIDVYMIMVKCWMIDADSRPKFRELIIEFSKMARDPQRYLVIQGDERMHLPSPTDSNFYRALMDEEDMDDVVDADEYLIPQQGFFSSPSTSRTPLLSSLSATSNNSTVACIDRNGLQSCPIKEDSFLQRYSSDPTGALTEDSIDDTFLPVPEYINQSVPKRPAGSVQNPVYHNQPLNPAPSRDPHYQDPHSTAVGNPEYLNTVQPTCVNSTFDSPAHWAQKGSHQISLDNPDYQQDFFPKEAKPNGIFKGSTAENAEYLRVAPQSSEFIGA
T1 sequence (P00533 25-1210): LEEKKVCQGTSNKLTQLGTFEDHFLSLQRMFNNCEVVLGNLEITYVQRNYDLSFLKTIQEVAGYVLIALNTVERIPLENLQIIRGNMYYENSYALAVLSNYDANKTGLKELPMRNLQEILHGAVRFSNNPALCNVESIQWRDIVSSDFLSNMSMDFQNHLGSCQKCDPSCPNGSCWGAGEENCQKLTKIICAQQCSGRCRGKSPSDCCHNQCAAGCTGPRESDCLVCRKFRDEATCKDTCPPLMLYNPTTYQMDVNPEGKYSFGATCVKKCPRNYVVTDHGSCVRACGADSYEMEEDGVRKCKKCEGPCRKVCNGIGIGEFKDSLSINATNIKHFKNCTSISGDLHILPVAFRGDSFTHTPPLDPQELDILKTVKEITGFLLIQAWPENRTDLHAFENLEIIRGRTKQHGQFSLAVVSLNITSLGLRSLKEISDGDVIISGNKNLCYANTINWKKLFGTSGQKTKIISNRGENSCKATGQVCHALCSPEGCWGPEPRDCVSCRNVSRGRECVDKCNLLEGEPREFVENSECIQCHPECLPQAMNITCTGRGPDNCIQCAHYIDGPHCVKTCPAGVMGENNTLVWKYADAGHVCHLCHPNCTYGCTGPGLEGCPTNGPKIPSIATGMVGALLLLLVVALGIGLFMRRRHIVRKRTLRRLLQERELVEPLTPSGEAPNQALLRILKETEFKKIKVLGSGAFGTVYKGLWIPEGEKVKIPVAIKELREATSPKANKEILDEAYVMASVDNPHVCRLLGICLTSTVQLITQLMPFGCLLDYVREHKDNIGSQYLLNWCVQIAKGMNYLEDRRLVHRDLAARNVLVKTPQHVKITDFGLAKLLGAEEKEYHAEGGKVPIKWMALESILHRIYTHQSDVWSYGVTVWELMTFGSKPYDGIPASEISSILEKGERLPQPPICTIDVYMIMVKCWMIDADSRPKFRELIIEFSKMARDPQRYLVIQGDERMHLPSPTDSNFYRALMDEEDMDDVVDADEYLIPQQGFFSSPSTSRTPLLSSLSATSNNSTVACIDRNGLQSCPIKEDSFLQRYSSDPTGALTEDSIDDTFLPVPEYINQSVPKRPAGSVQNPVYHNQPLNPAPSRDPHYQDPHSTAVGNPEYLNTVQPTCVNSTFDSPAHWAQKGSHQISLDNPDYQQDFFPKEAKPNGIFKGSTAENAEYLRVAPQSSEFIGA

| SMILES | DC50 (A431 (EGFR_WT)) | DC50 [1] | DC50 [2] | GI50 (A431) | GI50 (BaF3_DTC) | GI50 (BaF3_ASV) |
| --- | --- | --- | --- | --- | --- | --- |
| CCc1cc(Nc2ncc(Br)c(Nc3ccc4nccnc4c3NS(C)(=O)=O)n2)c(OC)cc1N1CCC(N2CC[C@@H](CN3CCN(c4ccc5c(c4)CN([C@H]4CCC(=O)NC4=O)C5=O)CC3)C2)CC1 [Compound 92] | > 1000 nM | 3.97 nM | 24.5 nM | > 1000 nM | 14.6 nM | 92.9 nM |
| CCc1cc(Nc2ncc(Br)c(Nc3ccc4nccnc4c3NS(C)(=O)=O)n2)c(OC)cc1N1CCC(N2CCN(CCc3cccc4c3CN(C3CCC(=O)NC3=O)C4=O)CC2)CC1 (stereo not drawn) [Compound 9, N-(6-((5-bromo-2-((4-(4-(4-(2-(2-(2,6-dioxopiperidin-3-yl)-1-oxoisoindolin-4-yl)ethyl)piperazin-1-yl)piperidin-1-yl)-5-ethyl-2-methoxyphenyl)amino)pyrimidin-4-yl)amino)quinoxalin-5-yl)methanesulfonamide] | > 1000 nM | 8.05 nM | 251 nM | > 1000 nM | 14.7 nM | 563 nM |
| CCc1cc(Nc2ncc(Br)c(Nc3ccc4nccnc4c3NS(C)(=O)=O)n2)c(OC)cc1N1CCC(N2CCN(c3ccc4c(c3)CN([C@H]3CCC(=O)NC3=O)C4=O)CC2)CC1 [Compound 38, (S)-N-(6-((5-bromo-2-((4-(4-(4-(2-(2,6-dioxopiperidin-3-yl)-1-oxoisoindolin-5-yl)piperazin-1-yl)piperidin-1-yl)-5-ethyl-2-methoxyphenyl)amino)pyrimidin-4-yl)amino)quinoxalin-5~yl)methanesulfonamide] | > 1000 nM | 4.2 nM | 35.1 nM | > 1000 nM | 9.14 nM | 90.3 nM |
| CCc1cc(Nc2ncc(Br)c(Nc3ccc4nccnc4c3NS(C)(=O)=O)n2)c(OC)cc1N1CCC(N2CCN(C3CC4(CCN(c5ccc6c(c5)CN(C5CCC(=O)NC5=O)C6=O)CC4)C3)CC2)CC1 (stereo not drawn) [Compound 48, N-(6-((5-bromo-2-((4-(4-(4-(7-(2-(2,6-dioxopiperidin-3-yl)-1-oxoisoindolin-5-yl)-7-azaspiro[3.5]nonan-2-yl)piperazin-1-yl)piperidin-1-yl)-5-ethyl-2-methoxyphenyl)amino)pyrimidin-4-yl)amino)quinoxalin-5-yl)methanesulfonamide] | > 1000 nM | 4.26 nM | 23.7 nM | > 1000 nM | 6.04 nM | 36.8 nM |
| CCc1cc(Nc2ncc(Br)c(Nc3ccc4nccnc4c3NS(C)(=O)=O)n2)c(OC)cc1N1CCC(N2CCN(CCc3cccc4c3C(=O)N(C3CCC(=O)NC3=O)C4)CC2)CC1 (stereo not drawn) [Compound 8, N-(6-((5-bromo-2-((4-(4-(4-(2-(2-(2,6-dioxopiperidin-3-yl)-3-oxoisoindolin-4-yl)ethyl)piperazin-1-yl)piperidin-1-yl)-5-ethyl-2-methoxyphenyl)amino)pyrimidin-4-yl)amino)quinoxalin-5-yl)methanesulfonamide] | > 1000 nM | 23.3 nM | > 1000 nM | > 1000 nM | 24.7 nM | 858 nM |
| CCc1cc(Nc2ncc(Br)c(Nc3ccc4nccnc4c3NS(C)(=O)=O)n2)c(OC)cc1N1CCC(N2CCN(CC3CCN(c4ccc5c(c4)CN(C4CCC(=O)NC4=O)C5=O)CC3)CC2)CC1 (stereo not drawn) [Compound 7, N-(6-((5-bromo-2-((4-(4-(4-((1-(2-(2,6-dioxopiperidin-3-yl)-1-oxoisoindolin-5-yl)piperidin-4-yl)methyl)piperazin-1-yl)piperidin-1-yl)-5-ethyl-2-methoxyphenyl)amino)pyrimidin-4~yl)amino)quinoxalin-5-yl)methanesulfonamide] | > 1000 nM | 2.43 nM | 16.6 nM | > 1000 nM | 2.84 nM | 41.9 nM |
